Patent US20240197608A1, “ACETYL SH-HEXAPEPTIDE-5 AMIDE ACETATE FOR USE IN THE TREATMENT OF HAIR LOSS DISORDERS AND AS A HAIR CARE AGENT” (L[…], S.A., priority 2021, published 2024)

Columns and labels:
Format in all cases: cell-based
[1] = test system: Insulin-like Growth Factor-1 (IGF1) gene expression; assay: IGF1 gene expression in Human Follicle Dermal Papilla Cells (RT-qPCR); conditions: HFDPC, 24 hours of incubation
Protocol: (§1) This assay determined the beneficial effect of the acetyl sh-hexapeptide-5 amide acetate in the reduction of the hair loss in an in vitro assay, using Dermal Papilla cells and analysed through gene expression analysis. In particular, this test determinate the effect of the acetyl sh-hexapeptide-5 amide acetate alone or in combination with tripeptide-10 citrulline after 24 hours of treatment of Human Follicle Dermal Papilla Cells (HFDPC), and through analysis of Fibroblast Growth Factor-7 (FGF7), Insulin-like Growth Factor-1 (IGF1), and Marker of Proliferation KI-67 (MKI67) gene expression, using Quantitative reverse transcription PCR (RT-qPCR) method.
(§2) Analytical equipment: Microscope, incubator, refrigerated centrifuge, statistical analysis software, micropipettes, pipettes, propipette, rack, quantifier Nano-Drop spectrophotometer, laminar flow hood, QuantStudio 5 (Applied Biosystem) Quantitative real-time PCR, vortex, Burker chamber, heating block, thermocycler, and consumables. […]
(§3) Methodology: Cell number and viability were determined using a Burker chamber and Trypan-Blue staining. […]
(§4) After 24 hours of incubation, the medium was removed, and cells were washed with PBS (phosphate buffered saline). […] 2 min (Ramp rate: 4.4° C./sec) 1 cycle PCR Analysis Mode: Quantification 95° C. […] All data were statistically analysed.

[2] = test system: Fibroblast Growth Factor-7 (FGF7) gene expression; assay: FGF7 gene expression in Human Follicle Dermal Papilla Cells (RT-qPCR); conditions: HFDPC, 24 hours of incubation
Protocol: as §1, §2, §3, §4

[3] = test system: Marker of Proliferation KI-67 (MKI67) gene expression; assay: MKI67 gene expression in Human Follicle Dermal Papilla Cells (RT-qPCR); conditions: sample at 5% in culture medium, HFDPC, 24 hours of incubation
Protocol: as §1, §2, §3, §4

acetyl sh-hexapeptide-5 amide acetate [sample 1]
IGF1 gene expression increase compared to the untreated control ([1]; sample at 1% in culture medium): 286.3±72.0% | IGF1 gene expression increase compared to the untreated control ([1]; sample at 5% in culture medium): 300.2±45.0% | Fibroblast Growth Factor-7 (FGF7) expression increase compared to the untreated control ([2]; sample at 1% in culture medium): 72.3±12.5% | Fibroblast Growth Factor-7 (FGF7) expression increase compared to the untreated control ([2]; sample at 5% in culture medium): 108.0±8.3% | MK167 gene expression increase compared to the untreated control [3]: 100.4±25.2%
